# According to ChEMBL document CHEMBL1671789, “Evaluation of quinazoline analogues as glucocerebrosidase inhibitors with chaperone activity” (J Med Chem, 2011):
# Active and inactive are the calls of the source. The rule behind the calls is not given here.
# Legend:
# [1] = Inhibition of alpha-galactosidase
# [2] = Inhibition of alpha-glucosidase
# Note: test concentration or dose not given here.
Compound,Activity [1],Activity [2]
O=S(=O)(c1ccc(Br)cc1)N1CCN(c2nc(-c3ccccc3)nc3ccccc23)CC1,inactive,inactive
Cc1cccc(S(=O)(=O)N2CCN(c3nc(-c4cccs4)nc4ccccc34)CC2)c1,inactive,inactive
O=C(c1ccc2c(c1)OCCO2)N1CCN(c2nc(-c3cccs3)nc3ccccc23)CC1,inactive,inactive
CC(=O)c1ccc(S(=O)(=O)N2CCN(c3nc(-c4cccs4)nc4ccccc34)CC2)cc1,inactive,inactive
COc1ccc(S(=O)(=O)N2CCN(c3nc(-c4cccs4)nc4ccccc34)CC2)cc1OC,inactive,inactive
CC(=O)N1CCN(c2nc(-c3cccs3)nc3ccccc23)CC1,inactive,inactive
O=S(=O)(c1ccc2ncccc2c1)N1CCN(c2nc(-c3cccs3)nc3ccccc23)CC1,inactive,inactive
O=[N+]([O-])c1ccc(S(=O)(=O)N2CCN(c3nc(-c4ccccc4)nc4ccccc34)CC2)cc1,inactive,inactive
CN(CCN(C)c1nc(-c2cccs2)nc2ccccc12)C(=O)OC(C)(C)C,inactive,inactive
CC1(C)CCc2cc(S(=O)(=O)N3CCN(c4nc(-c5cccs5)nc5ccccc45)CC3)ccc2O1,inactive,inactive
Cc1ccc(S(=O)(=O)N2CCN(c3nc(-c4cccnc4)nc4ccccc34)CC2)cc1,inactive,inactive
Cc1ccc(S(=O)(=O)N2CCCN(c3nc(-c4cccs4)nc4ccccc34)CC2)cc1,inactive,inactive
O=S(=O)(Cc1ccccc1)N1CCN(c2nc(-c3cccs3)nc3ccccc23)CC1,inactive,inactive
O=S(=O)(c1ccc(F)cc1)N1CCN(c2nc(-c3cccs3)nc3ccccc23)CC1,inactive,inactive
Fc1ccccc1N1CCN(c2nc(-c3cccs3)nc3ccccc23)CC1,inactive,inactive
O=S(=O)(c1cccc(C(F)(F)F)c1)N1CCN(c2nc(-c3cccs3)nc3ccccc23)CC1,inactive,inactive
c1csc(-c2nc(N3CCN(Cc4ccc5c(c4)OCCO5)CC3)c3ccccc3n2)c1,inactive,inactive
COc1ccc(S(=O)(=O)N2CCN(c3nc(-c4cccs4)nc4ccccc34)CC2)cc1,inactive,inactive
CCOc1ccc(S(=O)(=O)N2CCN(c3nc(-c4ccccc4)nc4ccccc34)CC2)cc1,inactive,inactive
O=S(=O)(c1ccc2c(c1)CCCC2)N1CCN(c2nc(-c3cccs3)nc3ccccc23)CC1,inactive,inactive
CC(=O)c1cccc(S(=O)(=O)N2CCN(c3nc(-c4cccs4)nc4ccccc34)CC2)c1,inactive,inactive
O=S(=O)(c1ccccc1Cl)N1CCN(c2nc(-c3ccccc3)nc3ccccc23)CC1,inactive,inactive

Compound,Activity [1],Activity [2]
O=[N+]([O-])c1ccccc1S(=O)(=O)N1CCN(c2nc(-c3ccccc3)nc3ccccc23)CC1,inactive,inactive
O=S(=O)(c1ccc2c(c1)CCC2)N1CCN(c2nc(-c3ccccc3)nc3ccccc23)CC1,inactive,inactive
O=S(=O)(c1ccc2c(c1)CCCC2)N1CCN(c2nc(-c3ccccc3)nc3ccccc23)CC1,inactive,inactive
CC(C)(C)c1ccc(S(=O)(=O)N2CCN(c3nc(-c4cccs4)nc4ccccc34)CC2)cc1,inactive,inactive
CC(C)(C)c1cccc(S(=O)(=O)N2CCN(c3nc(-c4cccs4)nc4ccccc34)CC2)c1,inactive,inactive
Cc1ccc(S(=O)(=O)N2CCN(c3nc(-c4ccc(C)s4)nc4ccccc34)CC2)cc1,inactive,inactive
CCOc1ccc(S(=O)(=O)N2CCN(c3nc(-c4ccccc4)nc4ccccc34)CC2)cc1OCC,inactive,inactive
O=S(=O)(c1ccc(C(F)(F)F)cc1)N1CCN(c2nc(-c3ccccc3)nc3ccccc23)CC1,inactive,inactive
O=[N+]([O-])c1cccc(S(=O)(=O)N2CCN(c3nc(-c4ccccc4)nc4ccccc34)CC2)c1,inactive,inactive
NS(=O)(=O)c1ccc(S(=O)(=O)N2CCN(c3nc(-c4cccs4)nc4ccccc34)CC2)cc1,inactive,inactive
Cc1ccc(S(=O)(=O)N(C)CCCN(C)c2nc(-c3cccs3)nc3ccccc23)cc1,inactive,inactive
Cc1ccccc1S(=O)(=O)N1CCN(c2nc(-c3cccs3)nc3ccccc23)CC1,inactive,inactive
O=S(=O)(c1ccc2c(c1)OCCO2)N1CCN(c2nc(-c3ccccc3)nc3ccccc23)CC1,inactive,inactive
O=S(=O)(N1CCN(c2nc(-c3cccs3)nc3ccccc23)CC1)C(F)(F)F,inactive,inactive
N#Cc1ccc(S(=O)(=O)N2CCN(c3nc(-c4cccs4)nc4ccccc34)CC2)cc1,inactive,inactive
O=S(=O)(c1cccc2ccccc12)N1CCN(c2nc(-c3cccs3)nc3ccccc23)CC1,inactive,inactive
O=S(=O)(c1ccc(Cl)cc1)N1CCN(c2nc(-c3ccccc3)nc3ccccc23)CC1,inactive,inactive
O=S(=O)(c1ccccc1F)N1CCN(c2nc(-c3cccs3)nc3ccccc23)CC1,inactive,inactive
O=S(=O)(c1ccc(C(F)(F)F)cc1)N1CCN(c2nc(-c3cccs3)nc3ccccc23)CC1,inactive,inactive
COC(=O)c1nc(N2CCN(S(=O)(=O)c3ccc(C)cc3)CC2)c2ccccc2n1,inactive,inactive
Cc1ccc(S(=O)(=O)N2CCN(c3nc(-c4ccc(CN5CCNCC5)s4)nc4ccccc34)CC2)cc1,inactive,inactive

# Continued, values first:
Activity [1],Activity [2],Compound
inactive,inactive,Cc1ccc(S(=O)(=O)N2CCN(c3nc(-c4ncco4)nc4ccccc34)CC2)cc1
inactive,inactive,O=S(=O)(c1ccc(OC(F)(F)F)cc1)N1CCN(c2nc(-c3cccs3)nc3ccccc23)CC1
inactive,inactive,CC(=O)c1ccccc1S(=O)(=O)N1CCN(c2nc(-c3cccs3)nc3ccccc23)CC1
inactive,inactive,Cc1ccc(S(=O)(=O)N2CCN(c3ccnc(-c4cccs4)n3)CC2)cc1
inactive,inactive,CC(C)(C)OC(=O)N1CCN(c2nc(-c3cccs3)nc3ccccc23)CC1
inactive,inactive,CC(C)S(=O)(=O)N1CCN(c2nc(-c3cccs3)nc3ccccc23)CC1
inactive,inactive,CCOC(=O)c1ccc(S(=O)(=O)N2CCN(c3nc(-c4cccs4)nc4ccccc34)CC2)cc1
inactive,inactive,COc1ccc(S(=O)(=O)N2CCN(c3nc(-c4ccccc4)nc4ccccc34)CC2)cc1
inactive,inactive,Cc1ccc(S(=O)(=O)N2CCN(c3nc(-c4ccccc4)nc4ccccc34)CC2)cc1
inactive,inactive,Cc1ccc(S(=O)(=O)N2CCN(c3nc(-c4cncs4)nc4ccccc34)CC2)cc1
inactive,inactive,COc1ccc(-c2nc(N3CCN(S(=O)(=O)c4ccc(C)cc4)CC3)c3ccccc3n2)cc1
inactive,inactive,Cc1ccc(S(=O)(=O)N2CCN(c3nc(-n4cnc5ccccc54)nc4ccccc34)CC2)cc1
inactive,inactive,O=S(=O)(c1ccc(OC(F)(F)F)cc1)N1CCN(c2nc(-c3ccccc3)nc3ccccc23)CC1
inactive,inactive,O=S(=O)(c1ccc(Cl)cc1)N1CCN(c2nc(-c3cccs3)nc3ccccc23)CC1
inactive,inactive,Cc1ccc(S(=O)(=O)C2CCN(c3nc(-c4cccs4)nc4ccccc34)CC2)cc1
inactive,inactive,O=S(=O)(c1cc(Cl)cc(Cl)c1)N1CCN(c2nc(-c3cccs3)nc3ccccc23)CC1
inactive,inactive,N#Cc1ccccc1S(=O)(=O)N1CCN(c2nc(-c3ccccc3)nc3ccccc23)CC1
inactive,inactive,O=S(=O)(c1cccc(Cl)c1)N1CCN(c2nc(-c3cccs3)nc3ccccc23)CC1
inactive,inactive,N#Cc1cccc(S(=O)(=O)N2CCN(c3nc(-c4cccs4)nc4ccccc34)CC2)c1
inactive,inactive,CCOC(=O)c1ccccc1S(=O)(=O)N1CCN(c2nc(-c3cccs3)nc3ccccc23)CC1
inactive,inactive,Cc1ccc(S(=O)(=O)N2CCN(c3nc(-c4cccs4)nc4ncccc34)CC2)cc1
inactive,inactive,O=[N+]([O-])c1ccccc1S(=O)(=O)N1CCN(c2nc(-c3cccs3)nc3ccccc23)CC1
inactive,inactive,CC(C)(C)c1ccc(S(=O)(=O)N2CCN(c3nc(-c4ccccc4)nc4ccccc34)CC2)cc1
inactive,inactive,O=S(=O)(c1ccc2ncsc2c1)N1CCN(c2nc(-c3cccs3)nc3ccccc23)CC1
inactive,inactive,O=S(=O)(c1ccc(Br)cc1)N1CCN(c2nc(-c3cccs3)nc3ccccc23)CC1
